From patent US20240207362A1 (priority 2022, published 2024)
Entries after “also recorded” stand apart in the source; their conditions may differ.

Test system: dcLVs
Details: mouse, in vivo

SMILES	amount of CSF tracer (in dcLV)	contraction or dilation of dcLVs	contraction of dcLVs
CNC[C@H](O)c1cccc(O)c1 [phenylephrine]	decreased	contracts; also recorded: dosage dependent contraction	–
[Cl-].[K+] [potassium chloride]	–	–	strongly but transiently contracted
